From doi:10.1101/2025.05.30.657074, “A covalent recognition strategy enables conspecific mate identification” (bioRxiv, 2025)

Legend:
BmOR1/Orco = BmOR1/Orco (Bombyx mori, UniProt Q5WA61); experiment: GCaMP6 calcium flux assay, wild-type BmOR1/Orco; format: cell-based
Excerpt: (§1) The first insect pheromone system characterized at the molecular level is that of Bombyx mori, a moth long known to navigate towards its mate guided solely by pheromone cues with impressive navigation accuracy. Two PR/Orco complexes, BmOR1/BmOrco and BmOR3/BmOrco, have been linked to the behavioral responses to pheromones in B. mori (Figure 1A). The conspecific pheromone, bombykol, is detected through BmOR1/Orco and leads to sexual attraction. The heterospecific pheromone, bombykal, is sensed through BmOR3/Orco, and leads to suppression of mating behavior. We first characterized the extent to which both PR/Orco complexes are selective towards their cognate ligands. We used a previously established calcium flux functional assay where we co-transfected HEK293 cells with either BmOR1 or BmOR3, along with the coreceptor, BmOrco (here on referred to as Orco), and the fluorescent calcium reporter, GCaMP6 (Figure 1C). In this assay, ligand-activation of the heteromeric ion channel complexes by addition of either bombykol or bombykal leads to calcium influx, read out as GCaMP6 fluorescence changes that can be monitored in real-time and dose-dependent manner using a fluorescence plate reader. […] But we also found both PR/Orco complexes to be somewhat promiscuous: both complexes are activated by their non-cognate pheromones (bombykal for BmOR1/Orco and bombykol for BmOR3/Orco) with a response that is ~10 fold smaller than their cognate pheromones. […] Instead, two complexes with reciprocal specificities enable an unequivocal response to bombykal and bombykol across all concentrations, ensuring the behavioral accuracy needed for mate selection.
(§2) The assay was performed similarly to method descriptions in previous studies.
(§3) All DNA constructs used in this assay were cloned into a modified pME18 vector that contains a SV40 promotor.
(§4) Each transfection condition (per well) contained a total of 300 ng of plasmids in 1:1:1 ratio of the GCaMP6, Orco, and the corresponding OR plasmid that was diluted in 4.8 uL of OptiMEM (Gibco) along with 0.1 uL of P3000. The mixture was incubated for 5 minutes and then further incubated for 20 minutes after being mixed with Lipofectamine 3000 (Invitrogen) diluted in OptiMEM. This mixture was scaled accordingly to batch transfect 50-100 wells per construct per plate.
(§5) HEK293T cells were maintained at 37°C with 5% carbon dioxide and grown in high glucose DMEM enhanced with 10% FBS and 1% GlutaMAX (Gibco). Cells were detached with TrypLE Express Enzyme and resuspended in FluoroBrite DMEM (Gibco) with 10% FBS and 1% GlutaMAX (Gibco) to a concentration of 5 × 10^5 cells/ml. Cells were combined with each transfection condition and added to 2x16 wells of a 384-well plate (Grenier CELLSTAR). Cells were kept at 37°C for 18-20 hours before being used for fluorescence plate reading.
(§6) Odorant plates were prepared using D300e (Hewlett Packard), a digital, non-contact dispenser. Briefly, stock solutions of bombykol and bombykal were prepared in DMSO and plated onto 384-plates (Greiner, Catalog #784201) in a titrating volume to obtain a concentration series ranging between 316 nM and 100 mM with a final volume of 0.2 µL.
(§7) The odorant plates were kept at −20 °C until usage.
(§8) On the day of the GCaMP6 assay, Bravo (Agilent), a versatile liquid handler was used to prepare both the odorant plate and the assay plate (transfected cell plate) prior to the fluorescence readout using the FDSS/µcell kinetic plate Imager (Hamamatsu, C13299).
(§9) For the odorant plate, the DMSO dissolved stock solutions were diluted in 19.8 µL of Reading buffer (20 mM HEPES/NaOH (pH 7.4), 1× HBSS (Gibco), 3 mM Na2CO3, 1 mM MgSO4, and 5 mM CaCl2) to give a final concentration ranging from 3.16 nM to 1 mM with 1% DMSO. For the cell plate, the FluoroBrite DMEM (Gibco) was exchanged out with the […]
(§10) The kinetics of the fluorescence change upon odorant addition were measured using the FDSS/µcell kinetic plate Imager (Hamamatsu, C13299). […]

OR3_C215S = OR3_C215S (Bombyx mori, UniProt Q5FBE0, C215S); experiment: GCaMP6 calcium flux assay, BmOR3/Orco mutant C215S; format: cell-based
Excerpt: (§11) The first insect pheromone system characterized at the molecular level is that of Bombyx mori, a moth long known to navigate towards its mate guided solely by pheromone cues with impressive navigation accuracy. Two PR/Orco complexes, BmOR1/BmOrco and BmOR3/BmOrco, have been linked to the behavioral responses to pheromones in B. mori (Figure 1A). The conspecific pheromone, bombykol, is detected through BmOR1/Orco and leads to sexual attraction. The heterospecific pheromone, bombykal, is sensed through BmOR3/Orco, and leads to suppression of mating behavior. We first characterized the extent to which both PR/Orco complexes are selective towards their cognate ligands. We used a previously established calcium flux functional assay where we co-transfected HEK293 cells with either BmOR1 or BmOR3, along with the coreceptor, BmOrco (here on referred to as Orco), and the fluorescent calcium reporter, GCaMP6 (Figure 1C). In this assay, ligand-activation of the heteromeric ion channel complexes by addition of either bombykol or bombykal leads to calcium influx, read out as GCaMP6 fluorescence changes that can be monitored in real-time and dose-dependent manner using a fluorescence plate reader. […]
(§12) HEK293T cells were maintained at 37°C with 5% carbon dioxide and grown in high glucose DMEM enhanced with 10% FBS and 1% GlutaMAX (Gibco). […] Cells were kept at 37°C for 18-20 hours before being used for fluorescence plate reading. […]
as §8
(§13) For the odorant plate, the DMSO dissolved stock solutions were diluted in 19.8 µL of Reading buffer (20 mM HEPES/NaOH (pH 7.4), 1× HBSS (Gibco), 3 mM Na2CO3, 1 mM MgSO4, and 5 mM CaCl2) to give a final concentration ranging from 3.16 nM to 1 mM with 1% DMSO. […]
as §10

OR3_V352A = OR3_V352A (Bombyx mori, UniProt Q5FBE0, V352A); experiment: GCaMP6 calcium flux assay, BmOR3/Orco mutant V352A; format: cell-based
Excerpt: as §11, §12, §8, §13, §10

OR3_L349A = OR3_L349A (Bombyx mori, UniProt Q5FBE0, L349A); experiment: GCaMP6 calcium flux assay, BmOR3/Orco mutant L349A; format: cell-based
Excerpt: as §11, §12, §8, §13, §10

OR3_F159A = OR3_F159A (Bombyx mori, UniProt Q5FBE0, F159A); experiment: GCaMP6 calcium flux assay, BmOR3/Orco mutant F159A; format: cell-based
Excerpt: as §11, §12, §8, §13, §10

BmOR3/Orco = BmOR3/Orco (Bombyx mori, UniProt Q5FBE0); experiment: GCaMP6 calcium flux assay, wild-type BmOR3/Orco; format: cell-based
Excerpt: as §1, §2, §3, §4, §5, §6, §7, §8, §9, §10

OR3_K58A = OR3_K58A (Bombyx mori, UniProt Q5FBE0, K58A); experiment: GCaMP6 calcium flux assay, BmOR3/Orco mutant K58A; format: cell-based
Excerpt: as §1, §2, §3, §4, §5, §6, §7, §8, §9, §10

OR3_V348A = OR3_V348A (Bombyx mori, UniProt Q5FBE0, V348A); experiment: GCaMP6 calcium flux assay, BmOR3/Orco mutant V348A; format: cell-based
Excerpt: as §11, §12, §8, §13, §10

OR3_K58S = OR3_K58S (Bombyx mori, UniProt Q5FBE0, K58S); experiment: GCaMP6 calcium flux assay, BmOR3/Orco mutant K58S; format: cell-based
Excerpt: as §1, §2, §3, §4, §5, §6, §7, §8, §9, §10

OR3_K58Q = OR3_K58Q (Bombyx mori, UniProt Q5FBE0, K58Q); experiment: GCaMP6 calcium flux assay, BmOR3/Orco mutant K58Q; format: cell-based
Excerpt: as §1, §2, §3, §4, §5, §6, §7, §8, §9, §10

OR3_L353A = OR3_L353A (Bombyx mori, UniProt Q5FBE0, L353A); experiment: GCaMP6 calcium flux assay, BmOR3/Orco mutant L353A; format: cell-based
Excerpt: as §11, §12, §8, §13, §10

OR3_C215A = OR3_C215A (Bombyx mori, UniProt Q5FBE0, C215A); experiment: GCaMP6 calcium flux assay, BmOR3/Orco mutant C215A; format: cell-based
Excerpt: as §11, §12, §8, §13, §10

B. mori male moths = test system: B. mori male moths; parameters: method as in PMID 24744736, PMID 22836825; conditions: conspecific male moths; cited from earlier work

OR3_K58S, sequence (Q5FBE0 entry or part of it K58S): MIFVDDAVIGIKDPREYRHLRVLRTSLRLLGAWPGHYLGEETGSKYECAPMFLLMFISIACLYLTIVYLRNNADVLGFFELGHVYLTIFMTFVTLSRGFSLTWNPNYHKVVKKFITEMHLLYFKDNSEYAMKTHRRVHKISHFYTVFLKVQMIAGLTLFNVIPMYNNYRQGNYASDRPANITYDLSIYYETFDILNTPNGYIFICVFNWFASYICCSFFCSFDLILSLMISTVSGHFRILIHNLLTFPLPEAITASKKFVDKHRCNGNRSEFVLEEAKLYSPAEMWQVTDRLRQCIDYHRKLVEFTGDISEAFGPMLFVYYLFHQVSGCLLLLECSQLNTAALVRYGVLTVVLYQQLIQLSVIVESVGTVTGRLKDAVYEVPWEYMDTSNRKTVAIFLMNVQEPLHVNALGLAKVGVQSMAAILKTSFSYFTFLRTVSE
OR3_K58S, sequence (Q7YT34 entry or part of it, stated change not applied, further chain): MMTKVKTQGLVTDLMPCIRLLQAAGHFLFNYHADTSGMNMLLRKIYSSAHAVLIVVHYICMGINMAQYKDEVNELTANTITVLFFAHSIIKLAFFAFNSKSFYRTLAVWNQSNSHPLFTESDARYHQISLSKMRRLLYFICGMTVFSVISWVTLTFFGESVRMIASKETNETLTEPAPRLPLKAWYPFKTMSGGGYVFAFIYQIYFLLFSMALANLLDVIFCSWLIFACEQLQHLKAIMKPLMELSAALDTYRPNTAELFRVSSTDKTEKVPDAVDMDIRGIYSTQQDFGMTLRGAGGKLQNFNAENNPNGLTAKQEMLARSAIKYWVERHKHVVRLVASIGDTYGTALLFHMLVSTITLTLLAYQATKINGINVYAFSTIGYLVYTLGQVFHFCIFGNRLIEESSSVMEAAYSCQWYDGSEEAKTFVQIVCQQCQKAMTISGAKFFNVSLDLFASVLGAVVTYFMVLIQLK
OR3_L353A, sequence (Q5FBE0 entry or part of it L353A): as the sequence (Q5FBE0 entry or part of it K58S) above, with S58K, L353A counted along it
OR3_L353A, sequence (Q7YT34 entry or part of it, stated change not applied, further chain): as the sequence (Q7YT34 entry or part of it, stated change not applied, further chain) above
BmOR3/Orco, sequence (Q5FBE0 entry or part of it): as the sequence (Q5FBE0 entry or part of it K58S) above, with S58K counted along it
BmOR3/Orco, sequence (Q7YT34 entry or part of it, further chain): as the sequence (Q7YT34 entry or part of it, stated change not applied, further chain) above
OR3_F159A, sequence (Q5FBE0 entry or part of it F159A): as the sequence (Q5FBE0 entry or part of it K58S) above, with S58K, F159A counted along it
OR3_F159A, sequence (Q7YT34 entry or part of it, stated change not applied, further chain): as the sequence (Q7YT34 entry or part of it, stated change not applied, further chain) above
OR3_C215S, sequence (Q7YT34 entry or part of it, stated change not applied): as the sequence (Q7YT34 entry or part of it, stated change not applied, further chain) above
OR3_C215S, sequence (Q5FBE0 entry or part of it C215S): as the sequence (Q5FBE0 entry or part of it K58S) above, with S58K, C215S counted along it
OR3_V348A, sequence (Q7YT34 entry or part of it, stated change not applied): as the sequence (Q7YT34 entry or part of it, stated change not applied, further chain) above
OR3_V348A, sequence (Q5FBE0 entry or part of it V348A): as the sequence (Q5FBE0 entry or part of it K58S) above, with S58K, V348A counted along it
OR3_L349A, sequence (Q7YT34 entry or part of it, stated change not applied): as the sequence (Q7YT34 entry or part of it, stated change not applied, further chain) above
OR3_L349A, sequence (Q5FBE0 entry or part of it L349A): as the sequence (Q5FBE0 entry or part of it K58S) above, with S58K, L349A counted along it
BmOR1/Orco, sequence (Q7YT34 entry or part of it): as the sequence (Q7YT34 entry or part of it, stated change not applied, further chain) above
BmOR1/Orco, sequence (Q5WA61 entry or part of it): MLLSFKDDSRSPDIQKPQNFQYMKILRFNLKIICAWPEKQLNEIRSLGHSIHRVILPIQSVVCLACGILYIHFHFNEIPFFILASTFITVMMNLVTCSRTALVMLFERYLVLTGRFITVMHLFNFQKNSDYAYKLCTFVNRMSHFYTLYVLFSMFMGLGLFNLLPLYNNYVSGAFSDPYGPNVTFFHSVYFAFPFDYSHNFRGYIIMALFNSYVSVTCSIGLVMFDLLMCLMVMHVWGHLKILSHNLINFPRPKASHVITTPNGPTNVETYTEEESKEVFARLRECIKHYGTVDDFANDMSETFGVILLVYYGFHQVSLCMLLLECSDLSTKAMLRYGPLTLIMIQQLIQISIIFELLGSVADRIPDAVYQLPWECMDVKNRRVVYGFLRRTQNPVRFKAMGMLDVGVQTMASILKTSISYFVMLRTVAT
OR3_K58A, sequence (Q5FBE0 entry or part of it K58A): as the sequence (Q5FBE0 entry or part of it K58S) above, with S58A counted along it
OR3_K58A, sequence (Q7YT34 entry or part of it, stated change not applied, further chain): as the sequence (Q7YT34 entry or part of it, stated change not applied, further chain) above
OR3_C215A, sequence (Q5FBE0 entry or part of it C215A): as the sequence (Q5FBE0 entry or part of it K58S) above, with S58K, C215A counted along it
OR3_C215A, sequence (Q7YT34 entry or part of it, stated change not applied, further chain): as the sequence (Q7YT34 entry or part of it, stated change not applied, further chain) above
OR3_V352A, sequence (Q5FBE0 entry or part of it V352A): as the sequence (Q5FBE0 entry or part of it K58S) above, with S58K, V352A counted along it
OR3_V352A, sequence (Q7YT34 entry or part of it, stated change not applied, further chain): as the sequence (Q7YT34 entry or part of it, stated change not applied, further chain) above
OR3_K58Q, sequence (Q5FBE0 entry or part of it K58Q): as the sequence (Q5FBE0 entry or part of it K58S) above, with S58Q counted along it
OR3_K58Q, sequence (Q7YT34 entry or part of it, stated change not applied, further chain): as the sequence (Q7YT34 entry or part of it, stated change not applied, further chain) above

CCC/C=C\C=C\CCCCCCCCC=O [Bombykal, bombykal]
EC50 (BmOR1/Orco; EC50, HEK293 cells co-transfected with BmOR1, BmOrco, GCaMP6): 3 µM
EC50 (BmOR1/Orco; Mean (-log EC50 ± SE), wild-type BmOR1/Orco): 3.02 µM
response to non-cognate pheromone, fold smaller than cognate pheromone (BmOR1/Orco; bombykal vs cognate bombykol at BmOR1/Orco): ~ 10 fold
Hill Coefficient (n± SE) (BmOR1/Orco; wild-type BmOR1/Orco): 1.41 ± 0.09
Max (ΔF/F ± SE) (BmOR1/Orco; wild-type BmOR1/Orco, ΔF/F at highest ligand concentration): 1.02 ± 0.05 ΔF/F
EC50 (OR3_C215S): 1.26 µM
Hill Coefficient (n± SE) (OR3_C215S; OR3_C215S): 1.09 ± 0.07
Max (ΔF/F ± SE) (OR3_C215S; OR3_C215S): 0.82 ± 0.05 ΔF/F
EC50 (OR3_V352A): 0.537 µM
Hill Coefficient (n± SE) (OR3_V352A; OR3_V352A): 1.9 ± 0.2
Max (ΔF/F ± SE) (OR3_V352A; OR3_V352A): 0.63 ± 0.03 ΔF/F
EC50 (OR3_L349A): 3.39 µM
Hill Coefficient (n± SE) (OR3_L349A; OR3_L349A): 5 ± 3
Max (ΔF/F ± SE) (OR3_L349A; OR3_L349A): 0.48 ± 0.04 ΔF/F
EC50 (OR3_F159A): 12.6 µM
Hill Coefficient (n± SE) (OR3_F159A; OR3_F159A): 4 ± 2
Max (ΔF/F ± SE) (OR3_F159A; OR3_F159A): 0.16 ± 0.02 ΔF/F
EC50 (BmOR3/Orco; EC50, HEK293 cells co-transfected with BmOR3, BmOrco, GCaMP6): 0.16 µM
EC50 (BmOR3/Orco; Mean (-log EC50 ± SE), wild-type BmOR3/Orco): 0.162 µM
Hill Coefficient (n± SE) (BmOR3/Orco; wild-type BmOR3/Orco): 1.12 ± 0.08
Max (ΔF/F ± SE) (BmOR3/Orco; wild-type BmOR3/Orco, ΔF/F at highest ligand concentration): 0.98 ± 0.05 ΔF/F
EC50 (OR3_K58A): 15.8 µM
Hill Coefficient (n± SE) (OR3_K58A; OR3_K58A): 0.8 ± 0.2
Max (ΔF/F ± SE) (OR3_K58A; OR3_K58A): 0.18± 0.03 ΔF/F
EC50 (OR3_V348A): 0.479 µM
Hill Coefficient (n± SE) (OR3_V348A; OR3_V348A): 1.25 ± 0.08
Max (ΔF/F ± SE) (OR3_V348A; OR3_V348A): 1.13 ± 0.04 ΔF/F
EC50 (OR3_K58S): 13.8 µM
Hill Coefficient (n± SE) (OR3_K58S; OR3_K58S): 1.2 ± 0.2
Max (ΔF/F ± SE) (OR3_K58S; OR3_K58S): 0.36 ± 0.03 ΔF/F
EC50 (OR3_K58Q): 10.2 µM
Hill Coefficient (n± SE) (OR3_K58Q; OR3_K58Q): 1.3 ± 0.1
Max (ΔF/F ± SE) (OR3_K58Q; OR3_K58Q): 0.68 ± 0.02 ΔF/F
EC50 (OR3_L353A): 0.501 µM
Hill Coefficient (n± SE) (OR3_L353A; OR3_L353A): 1.3 ± 0.2
Max (ΔF/F ± SE) (OR3_L353A; OR3_L353A): 0.91 ± 0.04 ΔF/F
EC50 (OR3_C215A): 3.16 µM
Hill Coefficient (n± SE) (OR3_C215A; OR3_C215A): 1.4 ± 0.3
Max (ΔF/F ± SE) (OR3_C215A; OR3_C215A): 0.82 ± 0.03 ΔF/F
behavioral response (B. mori male moths): suppresses mating behavior
